Data: patent US9040307B2, “Fluorescent pH detector system and related methods” (Blood Cell Storage, Inc., priority 2011, dated 2015)
Read-outs that look alike come from different tables or passages of the source.

Tests used:
[1] = pKa determination from fluorescence emission spectra of SNAFL free acids; type: physicochemical; settings: 10 μM free acid, 50 mM phosphate buffers
Text: The pH at which two molecular species (tautomers) are equally represented is defined as the pKa. There are many variables that can affect pKa and methods for measurement are difficult since the structures have overlapping absorbance. Therefore direct comparisons from the literature can vary slightly. The calculations contained herein are based on the assumption that, at pH 10, only the trianionic naphtholate structure is present. The intensity of fluorescence at the emission maxima is divided by 2, and pH of the intersecting pH curve is calculated by interpolation between the nearest 2 curves.

[2] = Photobleaching degradation under fluorescent light; type: physicochemical
Method: A photobleaching degradation curve for EBIO-3 and BCSI-3 was constructed utilizing fluorescent light exposure and measuring the absorption at 530 nm to quantify functional dye. Identical concentrations of both dyes, 7.9 μM, were exposed to continuous fluorescent light (34 W Philips Hg bulb) from a distance of 16 inches for 3 days. At 73.5 hours the two dyes had degraded 64% and the degradation is within 5.6% of each other.

[3] = Absorbance and fluorescence of fluorophore/HSA conjugates in solution; type: physicochemical; settings: pH 7.4; free acid 10 micromolar, conjugates 1 micromolar
Text: A 10 micromolar solution of SNAFL-1 acid (obtained from Molecular Probes) at pH 7 was used as a standard to more accurately determine the average loading of SNAFL-1 per each HSA conjugate preparation.
Excitation conditions are reported for each fluorescence spectrum (3000 msec irradiation at the indicated wavelength).
The Ocean Optics halogen light source was equipped with a 532 nm interference filter (Edmund Optics, Barrington, N.J.) and this allowed the fluorescent isosbestic point at 572 nm for pH 6-7 to be detected.

[4] = Absorbance and emission spectra versus pH of SNAFL analogs in solution
[5] = cited from earlier work
[6] = Lee et al. (1989) Cytometry 10, 151-164

| pKa [1] | degraded (reduction in absorbance at 530 nm) ([2]; 73.5 hours continuous fluorescent light, 7.9 μM, pH 7.4 PBS) | absorption at 530 nm of control set ([2]; protected from light) | absorbance maximum [3] | pKa (physchem) | Absorbance λmax (base) ([4]; 10 μM, pH 10) | Emission λmax (base) ([4]; pH 10, excitation at absorbance λmax (base)) | Emission λiso ([4]; wavelength where emission spectra crossed, excitation at absorbance λmax (base)) | Compound | pKa [5, 6] | pKa ([5]; published values, free or immobilized dye) |
| --- | --- | --- | --- | --- | --- | --- | --- | --- | --- | --- |
| 6.6 | 64% | unchanged | 534 nm | 6.61 | 534 nm | 610 nm | 560 nm | O=C(O)CCc1cc2c(-c3ccccc3C(=O)O)c3ccc4cc(O)c(Cl)cc4c3oc-2cc1=O [EBIO-3] |  |  |
|  |  |  |  |  |  |  |  | O=S1(=O)OC2(c3ccccc31)c1ccc3cc(O)ccc3c1Oc1c2ccc2cc(O)ccc12 [VITABLUE] | 7.56 |  |
|  |  |  |  |  |  |  |  | Carboxynaphthofluorescein [CNF] | 7.99 | 7.62 |
